Assays:
Type in all cases: physicochemical
[1] = Hygroscopicity study of crystal forms (dynamic vapour sorption, 25° C.); conditions: for Crystal form after hygroscopicity test: two cycles
Text: According to the “9103 Guideline for Hygroscopicity for Pharmaceuticals” in Part IV of the 2015 edition of the Chinese Pharmacopoeia, descriptions of hygroscopic characteristics and definitions of hygroscopic weight gain are as follows; • Deliquescent: Absorbs sufficient moisture to form a liquid; • Extremely hygroscopic: Hygroscopic weight gain is no less than 15%; • Hygroscopic: Hygroscopic weight gain is less than 15% but no less than 2%; • Slightly hygroscopic: Hygroscopic weight gain is less than 2% but no less than 0.2%; • Non-hygroscopic or nearly non-hygroscopic: Hygroscopic weight gain is less than 0.2%.
Compound of Formula (I) (Oct. 15, 2021, Nanjing) 03881 Using the Surface Measurement Systems advantage 2, at a temperature of 25° C., and starting at a humidity of 50%, the humidity range was examined from […] to 95%, with increments of 10%. The criterion for evaluation was that the mass change dM/dT at each gradient was less than 0.002%, TMAX was 360 min, and the process was cycled twice.

[2] = Influencing factor stability of crystal forms (light, high temperature, high humidity, 30 days); conditions: for change in purity under 60° C. and light: 60° C. and light (4500 Lux); for change in purity under 60° C. and light / physicochemical stability under high humidity: open; for physicochemical stability under high humidity: high humidity conditions of 75% and 92.5%; for crystal form after influencing factor experiments: light, high temperature, high humidity
Procedure: Each crystal form was spread out in an open exposure setup, and the stability of the samples under conditions of light (4500 Lux), high temperature (40° C., 60° C.), and high humidity (RH 75 RH 92.5%) was examined separately. The sampling inspection period was 30 days.

[3] = Long-term/accelerated stability of crystal forms (25° C. 60% RH and 40° C. 75% RH); conditions: for physical and chemical stability, long-term accelerated conditions: 25° C. 60% RH and 40° C. 75% RH, six months
Procedure: The crystal forms D, E, Q, and U of the compound of formula (I) were respectively placed under conditions of 25° C. with 60% RH and 40° C. with 75% RH to evaluate their stability.

[4] = 92.5% RH, 9 days, open exposure
[5] = 92.5% RH, 15 days, open exposure
[6] = 92.5% RH, 30 days, open exposure
[7] = light 4500 Lux, 9 days, open exposure
[8] = light 4500 Lux, 15 days, open exposure
[9] = light 4500 Lux, 30 days, open exposure

N#Cc1ccc(N2CCC(Sc3ccc(COc4cccc5c4CN([C@H]4CCC(=O)NC4=O)C5=O)cn3)CC2)c(F)c1 [Crystal form D, (S)-4-(4-((5-(((2-(2,6-dioxopiperidin-3-yl)-1-oxoisoindolin-4-yl)oxy)methyl)pyridin-2-yl)thio)piperidin-1-yl)-3-fluorobenzonitrile]
Hygroscopic weight change 0.0% RH-95.0% RH [1]: 2.24% | Hygroscopic weight change 20% RH-80% RH [1]: 1.26% | Hygroscopicity class (20% RH-80% RH) [1]: (slightly hygroscopic) | Crystal form after hygroscopicity test [1]: Untransformed | Color and character ([2]; 40° C., 9 days, open exposure): White solid | Purity % ([2]; 40° C., 9 days, open exposure, listed as Free crystal form D): 97.3% | Color and character ([2]; 40° C., 15 days, open exposure): White solid | Purity % ([2]; 40° C., 15 days, open exposure, listed as Free crystal form D): 96.7% | Color and character ([2]; 40° C., 30 days, open exposure): White solid | Purity % ([2]; 40° C., 30 days, open exposure, listed as Free crystal form D): 95.8% | change in purity under 60° C. and light ([2]; 30 days): slight decrease in purity | Color and character ([2]; 60° C., 9 days, open exposure): White solid | Purity % ([2]; 60° C., 9 days, open exposure, listed as Free crystal form D): 96.6% | Color and character ([2]; 60° C., 15 days, open exposure): White solid | Purity % ([2]; 60° C., 15 days, open exposure, listed as Free crystal form D): 95.8% | Color and character ([2]; 60° C., 30 days, open exposure): White solid | Purity % ([2]; 60° C., 30 days, open exposure, listed as Free crystal form D): 93.9% | Color and character ([2]; 75% RH, 9 days, open exposure): White solid | Purity % ([2]; 75% RH, 9 days, open exposure, listed as Free crystal form D): 97.8% | Color and character ([2]; 75% RH, 15 days, open exposure): White solid | Purity % ([2]; 75% RH, 15 days, open exposure, listed as Free crystal form D): 97.7% | Color and character ([2]; 75% RH, 30 days, open exposure): White solid | Purity % ([2]; 75% RH, 30 days, open exposure, listed as Free crystal form D): 97.9% | Color and character [2, 4]: White solid | Purity % ([2]; 92.5% RH, 9 days, open exposure, listed as Free crystal form D): 97.8% | Color and character [2, 5]: White solid | Purity % ([2]; 92.5% RH, 15 days, open exposure, listed as Free crystal form D): 97.9% | Color and character [2, 6]: White solid | Purity % ([2]; 92.5% RH, 30 days, open exposure, listed as Free crystal form D): 97.8% | Color and character ([2]; Onset, 0 days): White solid | Purity % ([2]; Onset, 0 days, listed as Free crystal form D): 97.9% | physicochemical stability under high humidity ([2]; 30 days): good physicochemical stability | Color and character [2, 7]: White solid | Purity % ([2]; light 4500 Lux, 9 days, open exposure, listed as Free crystal form D): 97.3% | Color and character [2, 8]: White solid | Purity % ([2]; light 4500 Lux, 15 days, open exposure, listed as Free crystal form D): 96.8% | Color and character [2, 9]: White solid | Purity % ([2]; light 4500 Lux, 30 days, open exposure, listed as Free crystal form D): 95.4% | crystal form after influencing factor experiments ([2]; 30 days): remain unchanged | physical and chemical stability, long-term accelerated conditions [3]: good physical and chemical stability | Purity % 1 month ([3]; 25° C., 60% RH): 97.8% | Purity % 2 months ([3]; 25° C., 60% RH): 97.8% | Purity % 3 months ([3]; 25° C., 60% RH): 97.8% | Purity % 1 month ([3]; 40° C., 75% RH): 97.8% | Purity % 2 months ([3]; 40° C., 75% RH): 97.8% | Purity % 3 months ([3]; 40° C., 75% RH): 97.7% | Purity % 6 months ([3]; 40° C., 75% RH): 97.6% | Purity % Onset [3]: 97.9%

N#Cc1ccc(N2CCC(Sc3ccc(COc4cccc5c4CN([C@H]4CCC(=O)NC4=O)C5=O)cn3)CC2)c(F)c1 [Crystal form E, (S)-4-(4-((5-(((2-(2,6-dioxopiperidin-3-yl)-1-oxoisoindolin-4-yl)oxy)methyl)pyridin-2-yl)thio)piperidin-1-yl)-3-fluorobenzonitrile]
Hygroscopic weight change 0.0% RH-95.0% RH [1]: 2.24% | Hygroscopic weight change 20% RH-80% RH [1]: 0.84% | Hygroscopicity class (20% RH-80% RH) [1]: (slightly hygroscopic) | Crystal form after hygroscopicity test [1]: Untransformed | Color and character ([2]; 40° C., 9 days, open exposure): White solid | Purity % ([2]; 40° C., 9 days, open exposure, listed as Free crystal form E): 97.4% | Color and character ([2]; 40° C., 15 days, open exposure): White solid | Purity % ([2]; 40° C., 15 days, open exposure, listed as Free crystal form E): 97.0% | Color and character ([2]; 40° C., 30 days, open exposure): White solid | Purity % ([2]; 40° C., 30 days, open exposure, listed as Free crystal form E): 96.4% | change in purity under 60° C. and light ([2]; 30 days): slight decrease in purity | Color and character ([2]; 60° C., 9 days, open exposure): White solid | Purity % ([2]; 60° C., 9 days, open exposure, listed as Free crystal form E): 96.7% | Color and character ([2]; 60° C., 15 days, open exposure): White solid | Purity % ([2]; 60° C., 15 days, open exposure, listed as Free crystal form E): 95.9% | Color and character ([2]; 60° C., 30 days, open exposure): White solid | Purity % ([2]; 60° C., 30 days, open exposure, listed as Free crystal form E): 94.6% | Color and character ([2]; 75% RH, 9 days, open exposure): White solid | Purity % ([2]; 75% RH, 9 days, open exposure, listed as Free crystal form E): 97.9% | Color and character ([2]; 75% RH, 15 days, open exposure): White solid | Purity % ([2]; 75% RH, 15 days, open exposure, listed as Free crystal form E): 97.9% | Color and character ([2]; 75% RH, 30 days, open exposure): White solid | Purity % ([2]; 75% RH, 30 days, open exposure, listed as Free crystal form E): 97.8% | Color and character [2, 4]: White solid | Purity % ([2]; 92.5% RH, 9 days, open exposure, listed as Free crystal form E): 97.9% | Color and character [2, 5]: White solid | Purity % ([2]; 92.5% RH, 15 days, open exposure, listed as Free crystal form E): 97.8% | Color and character [2, 6]: White solid | Purity % ([2]; 92.5% RH, 30 days, open exposure, listed as Free crystal form E): 97.8% | Color and character ([2]; Onset, 0 days): White solid | Purity % ([2]; Onset, 0 days, listed as Free crystal form E): 97.9% | physicochemical stability under high humidity ([2]; 30 days): good physicochemical stability | Color and character [2, 7]: White solid | Purity % ([2]; light 4500 Lux, 9 days, open exposure, listed as Free crystal form E): 97.7% | Color and character [2, 8]: White solid | Purity % ([2]; light 4500 Lux, 15 days, open exposure, listed as Free crystal form E): 97.4% | Color and character [2, 9]: White solid | Purity % ([2]; light 4500 Lux, 30 days, open exposure, listed as Free crystal form E): 94.9% | crystal form after influencing factor experiments ([2]; 30 days): remain unchanged | physical and chemical stability, long-term accelerated conditions [3]: good physical and chemical stability | Purity % 1 month ([3]; 25° C., 60% RH): 97.9% | Purity % 2 months ([3]; 25° C., 60% RH): 97.8% | Purity % 3 months ([3]; 25° C., 60% RH): 97.8% | Purity % 1 month ([3]; 40° C., 75% RH): 97.8% | Purity % 2 months ([3]; 40° C., 75% RH): 97.8% | Purity % 3 months ([3]; 40° C., 75% RH): 97.8% | Purity % 6 months ([3]; 40° C., 75% RH): 97.4% | Purity % Onset [3]: 97.9%
